In US6737383B1, “Herbicidal oxadiazolidines” (priority 1999, dated 2004):

Tests used:
bamyardgrass = experiment: Test B flood test barnyardgrass; assay type: in vivo, Echinochloa crus-galli
Outline: (§1)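 Plants were grown to the 2-leaf stage before treatment with test chemical, then held in a greenhouse for twelve to sixteen days. Injury was visually rated against untreated controls on a 0–10 scale, where 0 is no effect and 10 is complete control.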

giant foxtail = experiment: Test B pre/postemergence giant foxtail; assay type: in vivo, Setaria faberii
Outline: (§2)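 Herbicidal effect was estimated by eye on a ten-point control scale after plants spent twelve to sixteen days in a greenhouse following soil or foliar treatment. Foliar sprays targeted plants at one to four leaves; all doses were formulated in a non-phytotoxic solvent with surfactant.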

surinam grass = experiment: Test B pre/postemergence surinam grass; assay type: in vivo, Brachiaria decumbens
Outline: as §2

pigweed = experiment: Test B pre/postemergence pigweed; assay type: in vivo, Amaranthus retroflexus
Outline: as §2

duck salad = experiment: Test B flood test duck salad; assay type: in vivo, Heteranthera limosa
Outline: as §1

cocklebur = experiment: Test B pre/postemergence cocklebur; assay type: in vivo, Xanthium strumarium
Outline: as §2

corn = experiment: Test B pre/postemergence corn; assay type: in vivo, Zea mays
Outline: as §2

velvetleaf = experiment: Test B pre/postemergence velvetleaf; assay type: in vivo, Abutilon theophrasti
Outline: as §2

soybean = experiment: Test B pre/postemergence soybean; assay type: in vivo, Glycine max
Outline: as §2

purple nutsedge = experiment: Test B pre/postemergence purple nutsedge; assay type: in vivo, Cyperus rotundus
Outline: as §2

bedstraw = experiment: Test B pre/postemergence bedstraw; assay type: in vivo, Galium aparine
Outline: as §2

blackgrass = experiment: Test B pre/postemergence blackgrass; assay type: in vivo, Alopecurus myosuroides
Outline: as §2

rape = experiment: Test B pre/postemergence rape; assay type: in vivo, Brassica napus
Outline: as §2

smallflower flatsedge = experiment: Test B flood test smallflower flatsedge; assay type: in vivo, Cyperus difformis
Outline: as §1

morningglory = experiment: Test B pre/postemergence morningglory; assay type: in vivo, Ipomoea hederacea
Outline: as §2

sugar beet = experiment: Test B pre/postemergence sugar beet; assay type: in vivo, Beta vulgaris
Outline: as §2

[1] = Postemergence, Rate 62 g/ha, scale 0 to 10, 0 is no effect, 10 is complete control
[2] = Rate 125 g/ha, Postemergence section (flood test species), scale 0 to 10, 0 no effect, 10 complete control
[3] = Rate 500 g/ha, Postemergence section of Table B, 0 to 10 scale (0 no effect, 10 complete control)
[4] = flood test, listed under Postemergence, Rate 250 g/ha, scale 0 to 10, 0 no effect, 10 complete control
[5] = Postemergence, Rate 250 g/ha, scale 0 to 10, 0 no effect, 10 complete control
[6] = Preemergence, Rate 31 g/ha, visual rating, scale 0 to 10 (0 no effect, 10 complete control)
[7] = Preemergence, Rate 62 g/ha, scale 0 to 10, 0 is no effect, 10 is complete control
[8] = Preemergence, Rate 125 g/ha, scale 0 to 10 (0 no effect, 10 complete control)
[9] = Preemergence, Rate 250 g/ha, scale of 0 to 10 where 0 is no effect and 10 is complete control
[10] = Rate 31 g/ha, Postemergence, scale 0 to 10
[11] = Rate 125 g/ha, Postemergence, scale 0 to 10, 0 no effect, 10 complete control

CCN(C(=O)n1oc(=O)n(-c2c(C)cccc2C)c1=O)C1CCCCC1 [Compound 27]
Barnyardgrass plant response rating (bamyardgrass; [1]): 0 | Barnyardgrass plant response rating (bamyardgrass; [2]): 0 | Barnyardgrass plant response rating (bamyardgrass; [3]): 9 | Barnyardgrass plant response rating (bamyardgrass; [4]): 8 | Giant foxtail plant response rating (giant foxtail; [1]): 0 | Giant foxtail plant response rating (giant foxtail; [5]): 0 | Giant foxtail plant response rating (giant foxtail; [6]): 0 | Plant response rating, Giant foxtail (giant foxtail; [7]): 0 | Plant response rating, Giant foxtail (giant foxtail; [8]): 0 | Plant response rating, Giant foxtail (giant foxtail; [9]): 0 | Giant foxtail plant response rating (giant foxtail; [10]): 0 | Giant foxtail plant response rating (giant foxtail; [11]): 0 | B. signalgrass plant response rating (surinam grass; [1]): 0 | B. signalgrass plant response rating (surinam grass; [5]): 0 | B. signalgrass plant response rating (surinam grass; [6]): 0 | Plant response rating, B. signalgrass (surinam grass; [7]): 0 | Plant response rating, B. signalgrass (surinam grass; [8]): 0 | Plant response rating, B. signalgrass (surinam grass; [9]): 0 | B. signalgrass plant response rating (surinam grass; [10]): 0 | B. signalgrass plant response rating (surinam grass; [11]): 0 | Redroot pigweed plant response rating (pigweed; [1]): 0 | Redroot pigweed plant response rating (pigweed; [5]): 0 | Redroot pigweed plant response rating (pigweed; [6]): 0 | Plant response rating, Redroot pigweed (pigweed; [7]): 0 | Plant response rating, Redroot pigweed (pigweed; [8]): 0 | Plant response rating, Redroot pigweed (pigweed; [9]): 0 | Redroot pigweed plant response rating (pigweed; [10]): 0 | Redroot pigweed plant response rating (pigweed; [11]): 0 | Ducksalad plant response rating (duck salad; [1]): 0 | Ducksalad plant response rating (duck salad; [2]): 0 | Ducksalad plant response rating (duck salad; [3]): 0 | Ducksalad plant response rating (duck salad; [4]): 0 | Cocklebur plant response rating (cocklebur; [1]): 0 | Cocklebur plant response rating (cocklebur; [5]): 0 | Cocklebur plant response rating (cocklebur; [6]): 0 | Plant response rating, Cocklebur (cocklebur; [7]): 0 | Plant response rating, Cocklebur (cocklebur; [8]): 0 | Plant response rating, Cocklebur (cocklebur; [9]): 0 | Cocklebur plant response rating (cocklebur; [10]): 0 | Cocklebur plant response rating (cocklebur; [11]): 0 | Corn plant response rating (corn; [1]): 0 | Corn plant response rating (corn; [5]): 0 | Corn plant response rating (corn; [6]): 0 | Plant response rating, Corn (corn; [7]): 0 | Plant response rating, Corn (corn; [8]): 0 | Plant response rating, Corn (corn; [9]): 0 | Corn plant response rating (corn; [10]): 0 | Corn plant response rating (corn; [11]): 0 | Velvetleaf plant response rating (velvetleaf; [1]): 0 | Velvetleaf plant response rating (velvetleaf; [5]): 0 | Velvetleaf plant response rating (velvetleaf; [6]): 0 | Plant response rating, Velvetleaf (velvetleaf; [7]): 0 | Plant response rating, Velvetleaf (velvetleaf; [8]): 0 | Plant response rating, Velvetleaf (velvetleaf; [9]): 0 | Velvetleaf plant response rating (velvetleaf; [11]): 0 | Soybean plant response rating (soybean; [1]): 1 | Soybean plant response rating (soybean; [5]): 2 | Soybean plant response rating (soybean; [6]): 0 | Plant response rating, Soybean (soybean; [7]): 0 | Plant response rating, Soybean (soybean; [8]): 0 | Plant response rating, Soybean (soybean; [9]): 0 | Soybean plant response rating (soybean; [11]): 1 | Nutsedge plant response rating (purple nutsedge; [1]): 0 | Nutsedge plant response rating (purple nutsedge; [5]): 0 | Nutsedge plant response rating (purple nutsedge; [6]): 0 | Plant response rating, Nutsedge (purple nutsedge; [7]): 0 | Plant response rating, Nutsedge (purple nutsedge; [8]): 0 | Plant response rating, Nutsedge (purple nutsedge; [9]): 0 | Nutsedge plant response rating (purple nutsedge; [10]): 0 | Nutsedge plant response rating (purple nutsedge; [11]): 0 | Bedstraw plant response rating (bedstraw; [1]): 0 | Bedstraw plant response rating (bedstraw; [5]): 0 | Bedstraw plant response rating (bedstraw; [6]): 0 | Plant response rating, Bedstraw (bedstraw; [7]): 0 | Plant response rating, Bedstraw (bedstraw; [8]): 0 | Plant response rating, Bedstraw (bedstraw; [9]): 0 | Bedstraw plant response rating (bedstraw; [10]): 0 | Bedstraw plant response rating (bedstraw; [11]): 0 | Blackgrass plant response rating (blackgrass; [1]): 0 | Blackgrass plant response rating (blackgrass; [5]): 0 | Blackgrass plant response rating (blackgrass; [6]): 0 | Plant response rating, Blackgrass (blackgrass; [7]): 0 | Plant response rating, Blackgrass (blackgrass; [8]): 0 | Plant response rating, Blackgrass (blackgrass; [9]): 0 | Blackgrass plant response rating (blackgrass; [10]): 0 | Blackgrass plant response rating (blackgrass; [11]): 0 | Rape plant response rating (rape; [1]): 0 | Rape plant response rating (rape; [5]): 0 | Rape plant response rating (rape; [6]): 0 | Plant response rating, Rape (rape; [7]): 0 | Plant response rating, Rape (rape; [8]): 0 | Plant response rating, Rape (rape; [9]): 0 | Rape plant response rating (rape; [10]): 0 | Rape plant response rating (rape; [11]): 0 | S. Flatsedge plant response rating (smallflower flatsedge; [1]): 0 | S. Flatsedge plant response rating (smallflower flatsedge; [2]): 0 | S. Flatsedge plant response rating (smallflower flatsedge; [4]): 0 | Morningglory plant response rating (morningglory; [1]): 0 | Morningglory plant response rating (morningglory; [5]): 0 | Morningglory plant response rating (morningglory; [6]): 0 | Plant response rating, Morningglory (morningglory; [7]): 0 | Plant response rating, Morningglory (morningglory; [8]): 0 | Plant response rating, Morningglory (morningglory; [9]): 0 | Morningglory plant response rating (morningglory; [10]): 0 | Morningglory plant response rating (morningglory; [11]): 0 | Sugarbeets plant response rating (sugar beet; [1]): 0 | Sugarbeets plant response rating (sugar beet; [5]): 0 | Sugarbeets plant response rating (sugar beet; [6]): 0 | Plant response rating, Sugarbeets (sugar beet; [7]): 0 | Plant response rating, Sugarbeets (sugar beet; [8]): 0 | Plant response rating, Sugarbeets (sugar beet; [9]): 0 | Sugarbeets plant response rating (sugar beet; [11]): 0
